Reference: PMC10244169, “Psychedelics promote plasticity by directly binding to BDNF receptor TrkB” (Nature Neuroscience, 2023)

Legend:
mice = experiment: Head-twitch response; type: in vivo, mouse; set-up: key to Mean, figure 7c (head-twitch response) / Mean Diff., figure 7d, Vehicle:Saline vs. Vehicle:LSD / Mean Diff., figure 7d, Vehicle:Saline vs. M100907:Saline / Mean Diff., figure 7d, M100907:Saline vs. M100907:LSD / Mean, figure 7d (head-twitch response) / Mean Diff., figure 7c, WT:Saline vs. WT:LSD / Head-twitch response, Mean: head twitch counts (scored every 2 min over 30 min); settings: for Mean, figure 7c (head-twitch response): LSD group
Procedure: Immediately after the last injection, the animals were placed inside a transparent chamber and their activity video-recorded for 30 min. Similarly to previous studies, head twitches were scored as counts every 2 min by observers blinded to treatments and genotypes.

eGFP-tagged TrkB (WT) = target: T1, eGFP-tagged TrkB (WT) (Rattus norvegicus, UniProt Q63604); experiment: Microscale thermophoresis (MST) in HEK293T lysates; type: binding; settings: for h (best-fit, 1c/1d) / Bmax (best-fit, 1c/1d): MST WT; for Bmax (best-fit, 1c/1d): fit ambiguous; for binding by MST: native (WT) TrkB
T1 construct: expressed in transfected cells; host or cells: HEK293T
Procedure: (§1) MST experiments were performed using the Monolith NT.115 (Blue/Red) instrument (NanoTemper Technologies). Lysates of HEK293T cells expressing GFP-tagged TrkB (WT, Y433F, TrkA.TM) were lysed, vortexed, sonicated and centrifuged 24 h after transient transfection and used as a source of fluorescently labeled TrkB, similarly to previously described protocols[11],[45]–[47]. The advantage of this approach is the possibility of studying the proteins in close-to-native conditions. However, the presence of other proteins, lipids, nucleic acids and other components of crude cell lysates can alter the diffusion of biomolecules and therefore binding affinities. High viscosity and background signal typically results in the affinity values being orders of magnitude […] than those of more traditional binding assays. […] The measurements were performed in premium coated capillaries (NanoTemper Technologies, MO-K025) using a LED source with 470 nm and 50% infrared-laser power at 25 °C. Analysis was performed using MO Affinity Analysis 2.3. Results were fitted to specific binding with Hill slope equations from GraphPad Prism 9.2.

GFP-tagged TrkB Y433F = target: T2, GFP-tagged TrkB Y433F (Rattus norvegicus, UniProt Q63604, Y433F); experiment: Microscale thermophoresis (MST) in HEK293T lysates; type: binding; settings: for Bmax (best-fit, 1c/1d) / h (best-fit, 1c/1d): MST Y433F; for binding by MST: Y433F
T2 construct: expressed in transfected cells; host or cells: HEK293T
Procedure: as §1

GFP-tagged TrkA.TM = experiment: Microscale thermophoresis (MST) in HEK293T lysates; type: binding
Procedure: as §1

pERK = experiment: Western blot of ERK phosphorylation in cortical neurons; type: cell-based, rat
Procedure: In a separate set of experiments to examine the effect of 5-HT2A activation, M100907 (100 nM) was administered as a 10 min pretreatment and remained in the medium for the rest of the experiment. Next, cells were lysed and centrifuged. […] The co-immunoprecipitation was carried out as previously described[11],[23],[24] with minor modifications. Briefly, Magnetic Dynabeads Protein G (Invitrogen, 10004D) were coated with anti-TrkB antibody (R&D Systems, AF1494) at 200 ng of antibody per 1 µl of beads in rotation (2 h, 4 °C). Finally, lysates were mixed with the coated beads (100 µg of total protein per 15 µl of beads) and incubated in rotation (overnight, 4 °C).
Proteins were separated according to their molecular weight by SDS–PAGE and transferred to a polyvinylidene fluoride membrane. Membranes were incubated with the following primary antibodies (all 1:1,000 in 3% BSA in TBS-T, overnight, 4 °C): anti-TrkB (R&D Systems, AF1494), anti-β-actin (Sigma-Aldrich, A1978), anti-phospho-mTOR (Cell Signaling Technology, 5536S), anti-phospho-p44/42 MAPK (Erk1/2) (Cell Signaling Technology, 9106S), anti-mTOR (Cell Signaling Technology, 2972S) and anti-p44/42 MAPK (Erk1/2) (Cell Signaling Technology, 9102S). […] Protein bands were visualized using enhanced chemiluminescent substrate (Thermo Scientific, 32132, ECL Plus) and imaged with a charge-coupled device camera (G:BOX, Syngene).

T1 sequence (Q63604 32-821): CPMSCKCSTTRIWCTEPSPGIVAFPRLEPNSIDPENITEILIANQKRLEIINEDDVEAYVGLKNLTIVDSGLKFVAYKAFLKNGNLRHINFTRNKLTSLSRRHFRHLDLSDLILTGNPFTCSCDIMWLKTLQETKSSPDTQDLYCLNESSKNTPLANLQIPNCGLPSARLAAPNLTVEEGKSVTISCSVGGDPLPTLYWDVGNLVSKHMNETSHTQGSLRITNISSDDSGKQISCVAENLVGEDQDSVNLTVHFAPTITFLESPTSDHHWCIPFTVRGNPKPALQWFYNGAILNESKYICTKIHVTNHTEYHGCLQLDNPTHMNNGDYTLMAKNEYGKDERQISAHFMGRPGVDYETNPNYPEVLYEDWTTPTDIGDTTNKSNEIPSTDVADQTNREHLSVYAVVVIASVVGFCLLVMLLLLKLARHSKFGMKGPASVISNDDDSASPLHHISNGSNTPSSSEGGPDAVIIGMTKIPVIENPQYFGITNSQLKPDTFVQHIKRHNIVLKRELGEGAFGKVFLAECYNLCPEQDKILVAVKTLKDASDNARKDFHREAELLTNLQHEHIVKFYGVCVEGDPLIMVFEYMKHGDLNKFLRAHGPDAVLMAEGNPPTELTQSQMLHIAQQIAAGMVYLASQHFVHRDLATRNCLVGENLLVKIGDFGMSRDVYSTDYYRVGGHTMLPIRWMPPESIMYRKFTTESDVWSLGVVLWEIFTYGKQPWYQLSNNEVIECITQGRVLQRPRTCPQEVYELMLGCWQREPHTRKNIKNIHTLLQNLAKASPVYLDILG
T2 sequence (Q63604 32-821 Y433F): as the sequence (Q63604 32-821) above, with Y402F counted along it

## CCN(CC)C(=O)C1C=C2c3cccc4[nH]cc(c34)CC2N(C)C1 (stereo not drawn) [LSD, lysergic acid diethylamide]
mice; M100907:LSD group
  Mean, figure 7d (head-twitch response): 0.4
mice; Vehicle:LSD group
  Mean, figure 7d (head-twitch response): 33
mice; WT mice
  Mean, figure 7c (head-twitch response): 76.8
mice; WT mice, saline minus LSD, Bonferroni's multiple comparisons test
  Mean Diff., figure 7c, WT:Saline vs. WT:LSD: -73.8
mice; Y433F+/- mice
  Mean, figure 7c (head-twitch response): 67.8
mice; Y433F+/- mice, saline minus LSD, Bonferroni's multiple comparisons test
  Mean Diff., figure 7c, Y433F+/-:Saline vs. Y433F+/-:LSD: -63.2
mice; Y433F^+/− mice treated with LSD 0.1 mg kg^−1
  head-twitch response: occurs normally
mice; ext fig 7c, TrkB.WT mice, Time (min) 2
  Head-twitch response, Mean: 2.6
mice; ext fig 7c, TrkB.WT mice, Time (min) 4
  Head-twitch response, Mean: 6.4
mice; ext fig 7c, TrkB.WT mice, Time (min) 6
  Head-twitch response, Mean: 10.6
mice; ext fig 7c, TrkB.WT mice, Time (min) 8
  Head-twitch response, Mean: 7.8
mice; ext fig 7c, TrkB.WT mice, Time (min) 10
  Head-twitch response, Mean: 6.6
mice; ext fig 7c, TrkB.WT mice, Time (min) 12
  Head-twitch response, Mean: 7.6
mice; ext fig 7c, TrkB.WT mice, Time (min) 14
  Head-twitch response, Mean: 5.4
mice; ext fig 7c, TrkB.WT mice, Time (min) 16
  Head-twitch response, Mean: 4.8
mice; ext fig 7c, TrkB.WT mice, Time (min) 18
  Head-twitch response, Mean: 3.6
mice; ext fig 7c, TrkB.WT mice, Time (min) 20
  Head-twitch response, Mean: 4
mice; ext fig 7c, TrkB.WT mice, Time (min) 22
  Head-twitch response, Mean: 4.6
mice; ext fig 7c, TrkB.WT mice, Time (min) 24
  Head-twitch response, Mean: 4.8
mice; ext fig 7c, TrkB.WT mice, Time (min) 26
  Head-twitch response, Mean: 2
mice; ext fig 7c, TrkB.WT mice, Time (min) 28
  Head-twitch response, Mean: 3.2
mice; ext fig 7c, TrkB.WT mice, Time (min) 30
  Head-twitch response, Mean: 2.6
mice; ext fig 7c, TrkB.Y433F mice, Time (min) 2
  Head-twitch response, Mean: 3
mice; ext fig 7c, TrkB.Y433F mice, Time (min) 4
  Head-twitch response, Mean: 6.2
mice; ext fig 7c, TrkB.Y433F mice, Time (min) 6
  Head-twitch response, Mean: 9.4
mice; ext fig 7c, TrkB.Y433F mice, Time (min) 8
  Head-twitch response, Mean: 8.8
mice; ext fig 7c, TrkB.Y433F mice, Time (min) 10
  Head-twitch response, Mean: 6.8
mice; ext fig 7c, TrkB.Y433F mice, Time (min) 12
  Head-twitch response, Mean: 6.2
mice; ext fig 7c, TrkB.Y433F mice, Time (min) 14
  Head-twitch response, Mean: 4.2
mice; ext fig 7c, TrkB.Y433F mice, Time (min) 16
  Head-twitch response, Mean: 5
mice; ext fig 7c, TrkB.Y433F mice, Time (min) 18
  Head-twitch response, Mean: 3.2
mice; ext fig 7c, TrkB.Y433F mice, Time (min) 20
  Head-twitch response, Mean: 2.6
mice; ext fig 7c, TrkB.Y433F mice, Time (min) 22
  Head-twitch response, Mean: 3
mice; ext fig 7c, TrkB.Y433F mice, Time (min) 24
  Head-twitch response, Mean: 3.2
mice; ext fig 7c, TrkB.Y433F mice, Time (min) 26
  Head-twitch response, Mean: 2.2
mice; ext fig 7c, TrkB.Y433F mice, Time (min) 28
  Head-twitch response, Mean: 1.8
mice; ext fig 7c, TrkB.Y433F mice, Time (min) 30
  Head-twitch response, Mean: 2.4
mice; ext fig 7d, Time (min) 2
  Head-twitch response, Mean: 0.2
mice; ext fig 7d, Time (min) 4
  Head-twitch response, Mean: 2.2
mice; ext fig 7d, Time (min) 6
  Head-twitch response, Mean: 2.6
mice; ext fig 7d, Time (min) 8
  Head-twitch response, Mean: 4.2
mice; ext fig 7d, Time (min) 10
  Head-twitch response, Mean: 3
mice; ext fig 7d, Time (min) 12
  Head-twitch response, Mean: 3.8
mice; ext fig 7d, Time (min) 14
  Head-twitch response, Mean: 3.2
mice; ext fig 7d, Time (min) 16
  Head-twitch response, Mean: 2.2
mice; ext fig 7d, Time (min) 18
  Head-twitch response, Mean: 2.4
mice; ext fig 7d, Time (min) 20
  Head-twitch response, Mean: 1.8
mice; ext fig 7d, Time (min) 22
  Head-twitch response, Mean: 1.2
mice; ext fig 7d, Time (min) 24
  Head-twitch response, Mean: 2.2
mice; ext fig 7d, Time (min) 26
  Head-twitch response, Mean: 1.4
mice; ext fig 7d, Time (min) 28
  Head-twitch response, Mean: 1.8
mice; ext fig 7d, Time (min) 30
  Head-twitch response, Mean: 0.8
mice; saline minus LSD, Bonferroni's multiple comparisons test
  Mean Diff., figure 7d, Vehicle:Saline vs. Vehicle:LSD: -30.6
mice; with M100907, saline minus LSD, Bonferroni's multiple comparisons test
  Mean Diff., figure 7d, M100907:Saline vs. M100907:LSD: -0.2
eGFP-tagged TrkB (WT)
  h (best-fit, 1c/1d): 0.8476
  Bmax (best-fit, 1c/1d): ~ 566372
  binding by MST: directly bind to native TrkB
GFP-tagged TrkB Y433F
  Bmax (best-fit, 1c/1d): ~ 430.4
  h (best-fit, 1c/1d): 1.157
  binding by MST: but not to Y433F
GFP-tagged TrkA.TM
  Bmax (best-fit, 1c/1d): ~ 12873
  h (best-fit, 1c/1d): 1.641
pERK; LSD 100 nM
  phosphorylation of ERK (pERK): rapidly increases phosphorylation of ERK (pERK)
pERK; LSD 100 nM, 5 min, vehicle 100
  pERK, group mean (5d): 167.8
pERK; LSD 100 nM, 1 h, vehicle 100
  pERK, group mean (5d): 200.7
pERK; LSD 100 nM, 24 h, vehicle 100
  pERK, group mean (5d): 100.4
pERK; M100907:LSD (LSD after M100907 pretreatment), vehicle 100
  pERK, group mean (5e): 313.5
pERK; Vehicle:LSD, vehicle 100
  pERK, group mean (5e): 268.1
pERK; mean of 5 min, 1 h, 24 h, vehicle 100
  pERK, column mean over timepoints (5d): 156.3
pERK; over vehicle and M100907 pretreatment, mean of vehicle 104
  pERK, column mean of LSD (5e): 290.8

## COc1cccc([C@H](O)C2CCN(CCc3ccc(F)cc3)CC2)c1OC [M100907]
mice; M100907 0.5 mg kg^−1, 30 min before LSD
  effect on LSD-induced head-twitch response: blocked
mice; M100907:Saline group
  Mean, figure 7d (head-twitch response): 0.2
mice; ext fig 7d, Time (min) 2
  Head-twitch response, Mean: 0.2
mice; ext fig 7d, Time (min) 4
  Head-twitch response, Mean: 0
mice; ext fig 7d, Time (min) 6
  Head-twitch response, Mean: 0
mice; ext fig 7d, Time (min) 8
  Head-twitch response, Mean: 0
mice; ext fig 7d, Time (min) 10
  Head-twitch response, Mean: 0
mice; ext fig 7d, Time (min) 12
  Head-twitch response, Mean: 0
mice; ext fig 7d, Time (min) 14
  Head-twitch response, Mean: 0
mice; ext fig 7d, Time (min) 16
  Head-twitch response, Mean: 0
mice; ext fig 7d, Time (min) 18
  Head-twitch response, Mean: 0
mice; ext fig 7d, Time (min) 20
  Head-twitch response, Mean: 0
mice; ext fig 7d, Time (min) 22
  Head-twitch response, Mean: 0
mice; ext fig 7d, Time (min) 24
  Head-twitch response, Mean: 0
mice; ext fig 7d, Time (min) 26
  Head-twitch response, Mean: 0
mice; ext fig 7d, Time (min) 28
  Head-twitch response, Mean: 0
mice; ext fig 7d, Time (min) 30
  Head-twitch response, Mean: 0
mice; vehicle minus M100907, Bonferroni's multiple comparisons test
  Mean Diff., figure 7d, Vehicle:Saline vs. M100907:Saline: 2.2
pERK; M100907 100 nM
  effect of pretreatment on LSD-induced increase in pERK: does not prevent LSD-induced increase in pERK
pERK; M100907:Vehicle (M100907 100 nM alone), vehicle 100
  pERK, group mean (5e): 108
pERK; over vehicle and LSD treatment, mean of vehicle row 184.0
  pERK, row mean of M100907 (5e): 210.8

## CN(C)CCc1c[nH]c2cccc(O)c12 [PSI, psilocin]
eGFP-tagged TrkB (WT)
  h (best-fit, 1c/1d): 0.8209
  Bmax (best-fit, 1c/1d): ~ 268422
  binding by MST: directly bind to native TrkB
GFP-tagged TrkB Y433F
  Bmax (best-fit, 1c/1d): 49.04
  h (best-fit, 1c/1d): 1.151
  binding by MST: but not to Y433F
GFP-tagged TrkA.TM
  Bmax (best-fit, 1c/1d): 151.3
  h (best-fit, 1c/1d): 1.115
